Results as given in PubChem BioAssay AID1259411 (Chemical Carcinogenesis Research Information System (CCRIS), 2018).
The source made the active and inactive calls. The rule behind the calls is not given here.

System: rodent carcinogenicity bioassays, tumor incidence
Experiment: CCRIS carcinogenicity studies
Summary of the method: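 Archive of carcinogenicity, mutagenicity, tumor promotion and tumor inhibition results drawn from journals, NCI reports and other sources, expert-reviewed; covers 1985-2011 and is no longer updated.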

Measured: carcinogen call

CCN(CC)N=O
active: Species: DOG, Route: ORAL, Tumor Site: Type of Lesion: LIVER active; positive | Species: FISH, Route: ORAL, Tumor Site: Type of Lesion: LIVER active; positive | Species: FISH, Strain/Sex: GUPPY POECILIA RETICULATA/MALE, FEMALE, Route: IMMERSION, Dose: 0, 29.4 MG/L IN WATER FOR 28 D (STUDY DURATION: 6 MONTHS), Tumor Site: Type of Lesion: LIVER: MULTIFOCAL HEPATOMA, CHOLANGIOMA active; positive | Species: FISH, Strain/Sex: MEDAKA/MALE,FEMALE, Route: IMMERSION, Dose: 0, 390 PPM IN AQUEOUS BATH FOR 48 HR (STUDY DURATION: 7 MO), Tumor Site: Type of Lesion: LIVER: TUMOR active; positive | Species: FISH, Strain/Sex: SHASTA RAINBOW TROUT/FEMALE, Route: ORAL, Dose: 0, 4, 70, 275, 550, 1100 PPM IN DIET FOR 12 MO (STUDY DURATION: 18 MO), Dose: 0, 4, 70, 275, 550, 1100 PPM IN DIET FOR 12 MO (STUDY DURATION: 18 MO), Tumor Site: Type of Lesion: LIVER: TUMOR active; positive | Species: FISH, Strain/Sex: SHASTA RAINBOW TROUT/MALE, Route: ORAL, Dose: 0, 4, 70, 275, 550, 1100 PPM IN DIET FOR 12 MO (STUDY DURATION: 18 MO), Dose: 0, 4, 70, 275, 550, 1100 PPM IN DIET FOR 12 MO (STUDY DURATION: 18 MO), Tumor Site: Type of Lesion: LIVER: TUMOR active; positive | Species: GUINEA PIG, Route: ORAL, SUBCUTANEOUS, Tumor Site: Type of Lesion: LIVER active; positive | Species: HAMSTER, Route: DERMAL, Tumor Site: Type of Lesion: NASAL CAVITY active; positive | Species: HAMSTER, Route: INHALATION, Tumor Site: Type of Lesion: TRACHEA, LUNG active; positive | Species: HAMSTER, Route: INTRAPERITONEAL, Tumor Site: Type of Lesion: TRACHEA, NASAL CAVITY, BRONCHI, LIVER, Tumor Site: Type of Lesion: TRACHEA, NASAL CAVITY, BRONCHI, LIVER active; positive | Species: HAMSTER, Route: ORAL, Tumor Site: Type of Lesion: TRACHEA, LUNG, NASAL CAVITY, BRONCHI, LIVER, FORESTOMACH, ESOPHAGUS, Tumor Site: Type of Lesion: TRACHEA, LUNG, NASAL CAVITY, BRONCHI, LIVER, FORESTOMACH, ESOPHAGUS active; positive | Species: HAMSTER, Route: SUBCUTANEOUS, Tumor Site: Type of Lesion: NASAL CAVITY, BRONCHI, TRACHEA, LUNG, LIVER, FORESTOMACH, ESOPHAGUS, Tumor Site: Type of Lesion: NASAL CAVITY, BRONCHI, TRACHEA, LUNG, LIVER, FORESTOMACH, ESOPHAGUS active; positive | Species: HAMSTER, Strain/Sex: SYRIAN/FEMALE, Route: INTRATRACHEAL, Dose: 0, 1 MG IN 0.1 ML PHOSPHATE BUFFER 15/WK FOR 4 MO (STUDY DURATION: 237 D), Tumor Site: Type of Lesion: LUNG: ADENOMA OR CARCINOMA, TRACHEA: PAPILLOMA active; positive | Species: HAMSTER, Strain/Sex: SYRIAN/MALE, Route: INTRATRACHEAL, Dose: 0, 0.1, 0.5 MG IN PHOSPHATE BUFFER 1/WK FOR 15 WK (TOTAL DOSE; 1.5; 7.5 MG) (STUDY DURATION: LIFESPAN), Dose: 0, 0.1, 0.5 MG IN PHOSPHATE BUFFER 1/WK FOR 15 WK (TOTAL DOSE; 1.5; 7.5 MG) (STUDY DURATION: LIFESPAN), Tumor Site: Type of Lesion: TRACHEA: PAPILLOMA, LUNG: ADENOMA, SQUAMOUS CARCINOMA, ADENOCARCINOMA, LIVER: HEPATOCELLULAR CARCINOMA, Tumor Site: Type of Lesion: TRACHEA: PAPILLOMA, LUNG: ADENOMA, SQUAMOUS CARCINOMA, ADENOCARCINOMA, LIVER: HEPATOCELLULAR CARCINOMA active; positive | Species: MONKEY, Route: ORAL, INTRAPERITONEAL, Tumor Site: Type of Lesion: LIVER active; positive | Species: MOUSE, Route: DERMAL, Tumor Site: Type of Lesion: NASAL CAVITY active; positive | Species: MOUSE, Route: ORAL, Tumor Site: Type of Lesion: LIVER, ESOPHAGUS, LUNG, FORESTOMACH, Tumor Site: Type of Lesion: LIVER, ESOPHAGUS, LUNG, FORESTOMACH active; positive | Species: MOUSE, Route: SUBCUTANEOUS, INTRAPERITONEAL, Tumor Site: Type of Lesion: LUNG active; positive | Species: MOUSE, Strain/Sex: AKR/MALE, Route: ORAL, Dose: 0, 100 PPM IN DRINKING WATER FOR DURATION OF STUDY (STUDY DURATION: 150 D), Tumor Site: Type of Lesion: LUNG: TUMOR active; positive | Species: MOUSE, Strain/Sex: B6C3F1/FEMALE, Route: INTRAPERITONEAL, Dose: 0, 1.5, 3 UG IN 0.01 ML TRIOCTANOIN/G BW INITIAL DOSE GIVEN ON DAY 1 OF AGE AND 3 SUBSEQUENT DOSES GIVEN 3, 9 AND 15 DAY, Dose: 0, 1.5, 3 UG IN 0.01 ML TRIOCTANOIN/G BW INITIAL DOSE GIVEN ON DAY 1 OF AGE AND 3 SUBSEQUENT DOSES GIVEN 3, 9 AND 15 DAY, Tumor Site: Type of Lesion: LIVER: ADENOMA, CARCINOMA, LUNG: TUMORS active; positive | Species: MOUSE, Strain/Sex: B6C3F1/FEMALE, Route: INTRAPERITONEAL, Dose: 0, 1.5, 3 UG IN 0.01 ML TRIOCTANOIN/G BW INITIAL DOSE GIVEN ON DAY 15 OF AGE AND 3 SUBSEQUENT DOSES GIVEN 3, 9 AND 15 DA, Dose: 0, 1.5, 3 UG IN 0.01 ML TRIOCTANOIN/G BW INITIAL DOSE GIVEN ON DAY 15 OF AGE AND 3 SUBSEQUENT DOSES GIVEN 3, 9 AND 15 DA, Tumor Site: Type of Lesion: LIVER: ADENOMA, CARCINOMA, LUNG: TUMORS active; positive | Species: MOUSE, Strain/Sex: B6C3F1/FEMALE, Route: INTRAPERITONEAL, Dose: 0, 1.5, 3 UG IN 0.01 ML TRIOCTANOIN/G BW INITIAL DOSE GIVEN ON DAY 42 OF AGE AND 3 SUBSEQUENT DOSES GIVEN 3, 9 AND 15 DA, Dose: 0, 1.5, 3 UG IN 0.01 ML TRIOCTANOIN/G BW INITIAL DOSE GIVEN ON DAY 42 OF AGE AND 3 SUBSEQUENT DOSES GIVEN 3, 9 AND 15 DA, Tumor Site: Type of Lesion: LIVER: ADENOMA, CARCINOMA, LUNG: TUMORS active; positive | Species: MOUSE, Strain/Sex: B6C3F1/MALE, Route: INTRAPERITONEAL, Dose: 0, 0.02, 0.07 UMOL/G BW IN 10 µL/G BW TRIOCTANOIN ONCE AT 12 D OF AGE (STUDY DURATION: 9 MO), Dose: 0, 0.02, 0.07 UMOL/G BW IN 10 µL/G BW TRIOCTANOIN ONCE AT 12 D OF AGE (STUDY DURATION: 9 MO), Tumor Site: Type of Lesion: LIVER: HEPATOMA active; positive | Species: MOUSE, Strain/Sex: B6C3F1/MALE, Route: INTRAPERITONEAL, Dose: 0, 1.5, 3 UG IN 0.01 ML TRIOCTANOIN/G BW INITIAL DOSE GIVEN ON DAY 1 OF AGE AND 3 SUBSEQUENT DOSES GIVEN 3, 9 AND 15 DAY, Dose: 0, 1.5, 3 UG IN 0.01 ML TRIOCTANOIN/G BW INITIAL DOSE GIVEN ON DAY 1 OF AGE AND 3 SUBSEQUENT DOSES GIVEN 3, 9 AND 15 DAY, Tumor Site: Type of Lesion: LIVER: ADENOMA, CARCINOMA, LUNG: TUMORS active; positive | Species: MOUSE, Strain/Sex: B6C3F1/MALE, Route: INTRAPERITONEAL, Dose: 0, 1.5, 3 UG IN 0.01 ML TRIOCTANOIN/G BW INITIAL DOSE GIVEN ON DAY 15 OF AGE AND 3 SUBSEQUENT DOSES GIVEN 3, 9 AND 15 DA, Dose: 0, 1.5, 3 UG IN 0.01 ML TRIOCTANOIN/G BW INITIAL DOSE GIVEN ON DAY 15 OF AGE AND 3 SUBSEQUENT DOSES GIVEN 3, 9 AND 15 DA, Tumor Site: Type of Lesion: LIVER: ADENOMA, CARCINOMA, LUNG: TUMORS active; positive | Species: MOUSE, Strain/Sex: B6C3F1/MALE, Route: INTRAPERITONEAL, Dose: 0, 1.5, 3 UG IN 0.01 ML TRIOCTANOIN/G BW INITIAL DOSE GIVEN ON DAY 42 OF AGE AND 3 SUBSEQUENT DOSES GIVEN 3, 9 AND 15 DA, Dose: 0, 1.5, 3 UG IN 0.01 ML TRIOCTANOIN/G BW INITIAL DOSE GIVEN ON DAY 42 OF AGE AND 3 SUBSEQUENT DOSES GIVEN 3, 9 AND 15 DA, Tumor Site: Type of Lesion: LIVER: ADENOMA, CARCINOMA, LUNG: TUMORS active; positive
